According to patent publication US8138159B2, “Composition for inhibiting function of human Flt3” (Takara Bio Inc., priority 2003, dated 2012):

Key:
Format in all cases: cell-based, human
[1] = system: EoL1 cells (WT-highly expressing); test: cell growth activity, Premix WST1 (Example 2)
Procedure: (§1) The cells placed in a 96-well plate at a density of 2×10^4 cells/well were cultured in an RPMI medium (containing 10% by volume FBS). The cells were transfected with each of the synthesized (10 nM each) siRNAs, and after 20 hours, the cell growth activity was determined with Premix WST1 reagent (trade name, manufactured by TAKARA BIO INC.). Relative growth ability (%) compared with the growth ability of the control (cells subjected to transfection without adding an siRNA) was determined. Each experiment was carried out with n=3, and the mean was determined.

[2] = system: HL60 cells (WT-low expressing); test: cell growth activity, Premix WST1 (Example 2)
Procedure: as §1

[3] = system: MV4-11 cells (ITD mutation-highly expressing); test: cell growth activity, Premix WST1 (Example 2)
Procedure: as §1

[4] = system: Flt3 mRNA highly expressing cells; test: cell growth activity, Premix WST1 (Example 2), stated for highly expressing cells together; details: regardless of presence or absence of ITD mutation, read-out: IC50 (50% inhibition concentration) of growth
[5] = system: MV4-11 (ITD mutation) cells; test: cell growth with siRNA alone or siRNA cocktail, WST-1 (Example 7); details: final concentration 1.2 μM, electroporation, 72 hours, n=6 mean
Procedure: As the composition of the present invention, a cocktail containing the synthesized siRNA1, 2 and 3, or siRNA3 alone, was examined for its growth inhibitory activity on MV4-11 (ITD mutation) cells. The synthesized siRNA1, 2 and 3 used were the same as in item (1) of Example 1 above.
A medium for MV4-11 cells used was the same as in item (2) of above Example 1, and the cells were cultured at 37° C. for 24 hours in an RPMI 1640 medium (manufactured by TAKARA BIO INC.) supplemented with 10% by volume fetal bovine serum (FBS) (referred to hereinafter as the culture medium) in the presence of 5% by volume CO2. Then, transfection of the cells with the synthesized siRNA3 was carried out in the following manner. […]
The cells added in an amount of 100 μl/well on the 96-well plate prepared in item (2) above were cultured at 37° C. in the presence of 5% by volume CO2. Seventy-two hours after the culture was initiated, the growth activity of the cells was determined using Premix WST-1 reagent (manufactured by TAKARA BIO INC.) according to a manufacturer's protocol. Each experiment was carried out with n=6, and the mean was determined. The relative growth ratio (%) as compared with the growth ability of the cells transfected with the control siRNA was determined.

[6] = siRNA 10 nM, after 20 hours, n=3 mean, control = transfection without siRNA

siRNA3: siRNA to juxtamembrane region (Flt3/JMD region) (target SEQ ID NO: 7); sense SEQ ID NO: 8, antisense SEQ ID NO: 9 (sense UAUGAAUAUGAUCUCAAAUTT; antisense AUUUGAGAUCAUAUUCAUATT; chemistry not given here)
Ratio of cell-growth activation defining RNA interference effect in HL60 as 1 [1]: (0.50)
Relative growth ability (%) compared with the control [1, 6]: 45.1%
Ratio of cell-growth activation defining RNA interference effect in HL60 as 1 ([2]; HL60, the reference itself): (1)
Relative growth ability (%) compared with the control ([2]; HL60, siRNA 10 nM, after 20 hours, n=3 mean, control = transfection without siRNA): 90.3%
Ratio of cell-growth activation defining RNA interference effect in HL60 as 1 [3]: (0.41)
Relative growth ability (%) compared with the control [3, 6]: 37.5%
IC50 [4]: 10 nM
relative growth ratio (%) as compared with the cells transfected with the control siRNA (growth inhibition to) [5]: 46.5%
